Source: ChEMBL document CHEMBL1138916, “Design and synthesis of the first generation of dithiolane thiazolidinedione- and phenylacetic acid-based PPARgamma agonists” (J Med Chem, 2006)
In brackets after ≈: the same amount, converted by molar mass. Several values for one entry are separate records, joined by “and”; a condition that tells them apart may be missing. Equal values may be shown once. One block for each compound: values may come before it. Activity calls are given as the source filed them. No cut-off for these calls is given here.

Key:
[1] = molecular target: T1, Peroxisome proliferator-activated receptor gamma (Homo sapiens, UniProt P37231)
T1 sequence (P37231 whole entry): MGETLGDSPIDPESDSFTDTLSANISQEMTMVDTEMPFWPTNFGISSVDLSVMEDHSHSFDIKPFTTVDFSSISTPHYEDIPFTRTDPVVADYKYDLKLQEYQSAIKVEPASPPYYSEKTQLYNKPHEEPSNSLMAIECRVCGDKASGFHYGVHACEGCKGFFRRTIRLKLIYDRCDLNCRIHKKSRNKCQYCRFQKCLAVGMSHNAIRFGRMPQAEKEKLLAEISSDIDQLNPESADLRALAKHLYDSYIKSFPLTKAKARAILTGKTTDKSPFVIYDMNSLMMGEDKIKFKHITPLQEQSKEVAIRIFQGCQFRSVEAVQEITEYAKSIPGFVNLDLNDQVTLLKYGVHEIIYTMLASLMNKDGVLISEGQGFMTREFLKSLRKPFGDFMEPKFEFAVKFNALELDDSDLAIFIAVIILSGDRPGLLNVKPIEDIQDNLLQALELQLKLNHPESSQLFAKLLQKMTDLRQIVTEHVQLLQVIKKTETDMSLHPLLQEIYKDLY
Description: Transactivation of PPARgamma in CV1 cells

[2] = test system: HT-29; assay: Antiproliferative activity against human HT29 cell line; type: functional, cell-based
[3] = test system: T-cell; assay: Inhibition of PHA/PMA-induced IL2 production in human T lymphocytes; type: functional
[4] = test system: T-cell; assay: Inhibition of PHA/PMA-induced IL2 production in human T lymphocytes at 10 uM; type: functional, cell-based
[5] = molecular target: T2, Peroxisome proliferator-activated receptor gamma (Homo sapiens) (UniProt P37231); assay: Transactivation of PPARgamma at 10 uM in CV1 cells; type: functional, cell-based; settings: CV-1
T2 sequence (whole entry): T1 sequence (P37231 whole entry)

[6] = test system: MCF7; assay: Antiproliferative activity against human MCF7 cell line; type: functional, cell-based
[7] = test system: Keratinocyte; assay: Antiproliferative activity against human keratinocytes; type: functional, cell-based
[8] = test system: 3T3-L1; assay: Induction of adipogenesis in mouse 3T3 L1 preadipocytes; type: functional, cell-based
[9] = molecular target: T2, Peroxisome proliferator-activated receptor gamma (Homo sapiens); assay: Transactivation of PPARgamma up to 30 uM in CV1 cells; type: functional, cell-based; settings: CV-1
[10] = test system: Rattus norvegicus; assay: Reduction in triglycerides level in Zucker fa/fa rat at 100 mg/kg relative to control; type: functional; design: scale not given: the % may be the effect or the level left
[11] = Solubility in water; type: physicochemical
[12] = test system: Rattus norvegicus; assay: Reduction in glucose level in Zucker fa/fa rat at 100 mg/kg relative to control; type: functional

Compound: CN(CCCCC1CCSS1)CCOc1ccc(CC2SC(=O)NC2=O)cc1 (stereo unspecified) [listing 1 of 3 here]
EC50 [1]: 11.1 µM

Compound: CN(CCOc1ccc(CC2SC(=O)NC2=O)cc1)C(=O)CCCCC(CCSC(=O)CN)SC(=O)CN.Cl.Cl (stereo unspecified)
IC50 [2]: 8 µM
Inhibition [3]: 92%
Activity [4]: Active
EC50 [1]: 0.06 µM
Activity [5]: 71
IC50 [6]: 25 µM
IC50 [7]: 1 µM
Activity [8]: Active

Compound: CN(CCOc1ccc(CC2SC(=O)NC2=O)cc1)c1ccccn1 (stereo unspecified) [ROSIGLITAZONE]
IC50 [2]: 45 µM
Inhibition [3]: 75%
IC50 [6]: > 50 µM
IC50 [7]: 8 µM

Compound: COC(=O)Cc1ccc(OCCN(C)C(=O)CCCCC2CCSS2)c(Cl)c1 (stereo unspecified)
Activity [9]: inactive

Compound: CN(CCCCC1CCSS1)CCOc1ccc(CC2SC(=O)NC2=O)cc1 (stereo unspecified) [listing 2 of 3 here]
EC50 [1]: 11.1 µM

Compound: CN(CCCOc1ccc(CC(=O)O)cc1Cl)C(=O)CCCCC1CCSS1 (stereo unspecified)
EC50 [1]: 12.3 µM

Compound: CN(CCCCC1CCSS1)CCOc1ccc(CC2SC(=O)NC2=O)cc1 (stereo unspecified) [listing 3 of 3 here]
EC50 [1]: 28 µM

Compound: CN(CCOc1ccc(CC2SC(=O)NC2=O)cc1)C(=O)CCCCC(S)CCS (stereo unspecified)
Inhibition [3]: 80%
Activity [4]: Active
EC50 [1]: 0.075 µM
Activity [5]: 129

Compound: CN(CCOc1ccc(CC(=O)O)cc1Cl)C(=O)CCCCC1CCSS1 (stereo unspecified)
Activity [9]: inactive

Compound: COC(=O)Cc1ccc(OCCCN(C)C(=O)CCCCC2CCSS2)c(Cl)c1 (stereo unspecified)
EC50 [1]: 18.5 µM

Compound: CN(C(=O)CCCCC1CCSS1)c1ccc(CC2SC(=O)NC2=O)cc1 (stereo unspecified)
Activity [9]: inactive

Compound: CN(CCOc1ccc(CC2SC(=O)NC2=O)cc1)C(=O)CCCCC1CCSS1 (stereo unspecified)
IC50 [2]: 10 µM
Inhibition [3]: 92%
Activity [10]: 83% and 54 mg/dl
Activity [4]: Active
EC50 [1]: 0.015 µM
solubility [11]: 39 µg/mL (≈ 83.2 µM)
Activity [12]: 180 mg/dL
IC50 [6]: 15 µM
IC50 [7]: 0.6 µM
Activity [8]: Active

More lines, now with the values ahead:

EC50 [1]: 0.15 µM
Activity [5]: 168
Compound: CC(=O)SC(CCCCC(=O)N(C)CCOc1ccc(CC2SC(=O)NC2=O)cc1)CCSC(=O)CCC(=O)O (stereo unspecified)

Activity [9]: inactive
Compound: CN(CCOc1ccc(CC2SC(=O)NC2=O)cc1)C(=O)CCC1CCSS1 (stereo unspecified)

EC50 [1]: 0.02 µM
Activity [5]: 177
Compound: CN(CCOc1ccc(CC2SC(=O)NC2=O)cc1)C(=O)CCCCC(S)CCSC(=O)CCC(=O)O (stereo unspecified)

EC50 [1]: 0.195 µM
Activity [5]: 138
Compound: CC(=O)SC(CCCCC(=O)N(C)CCOc1ccc(CC2SC(=O)NC2=O)cc1)CCSC(=O)CN (stereo unspecified)

EC50 [1]: 10 µM
Compound: O=C(CCCCC1CCSS1)NCCOc1ccc(CC2SC(=O)NC2=O)cc1 (stereo unspecified)

EC50 [1]: 0.039 µM
Activity [5]: 150
Compound: CC(=O)SCCC(CCCCC(=O)N(C)CCOc1ccc(CC2SC(=O)NC2=O)cc1)SC(C)=O (stereo unspecified)

EC50 [1]: 0.08 µM
Activity [5]: 60
Compound: CN(CCOc1ccc(CC2SC(=O)NC2=O)cc1)C(=O)CCCCC(CCSC(=O)CCC(=O)O)SC(=O)CCC(=O)O (stereo unspecified)
